Results from patent publication EP0639585A1, “Elastase inhibitor” (BANYU PHARMACEUTICAL CO., LTD., priority 1993, dated 1995).

Molecular target: T1, human leukocyte elastase (Homo sapiens, UniProt P08246)
T1 sequence (P08246 30-267): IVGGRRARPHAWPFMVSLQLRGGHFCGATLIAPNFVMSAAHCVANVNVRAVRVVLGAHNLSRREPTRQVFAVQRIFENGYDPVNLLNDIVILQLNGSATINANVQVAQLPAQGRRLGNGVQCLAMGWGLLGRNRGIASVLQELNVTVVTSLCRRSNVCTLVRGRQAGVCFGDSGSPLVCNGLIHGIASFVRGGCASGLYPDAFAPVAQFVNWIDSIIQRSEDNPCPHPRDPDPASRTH
Assay: Elastase inhibition activity (fluorogenic substrate N-methoxy succinyl-L-alanyl-L-alanyl-L-prolyl-L-valine 4-methylcoumaryl-7-amide)
Type: biochemical
Settings: 0.2M tris buffer pH8.5, 1M sodium chloride, 40µM substrate, 37° C, 20 minutes incubation; read-out: IC₅₀
Description: The inhibition activities to human leukocyte elastase were determined as follows: Each 1µl of DMSO solution of the compound and DMSO (for reference) were added to each 250µl of 0.2M tris buffer solutions (pH8.5) containing 40µM N-methoxy succinyl-L-alanyl-L-alanyl-L-prolyl-L-valine 4-methylcoumaryl-7-amide and 1M sodium chloride, and the mixtures were pre-incubated at 37° C for three minutes. Then 50µl of 0.2M tris buffer solutions (pH8.5) containing 0.2µg/ml human leukocyte elastase were added to the mixtures and the mixtures were incubated at 37° C for 20 minutes. Each 1ml of 2M acetic acid aqueous solutions were added to the mixture and the reactions were stopped and then fluorescences of the supernatants were measured and the activities were calculated. As the results, IC₅₀ values were as follows: the compound 6 = 0.78µM, the compound 4 = 6.32µM, the compound 1 = 8.48µM and the compound 5 = 9.94µM.

IC50 [µM] | SMILES
8.48 | CCC[C@H](NC(=O)[C@@H]1CCCN1C(=O)[C@H](CC(C)C)NC(C)=O)C(=O)C(=O)Cc1ccccc1 [Compound 1, (4S)-4-(N-acetyl-L-leucyl-L-prolyl)amino-1-phenyl-2,3-heptanedione]
6.32 | CCC[C@H](NC(=O)[C@@H]1CCCN1C(=O)[C@H](CC(C)C)NC(=O)OCc1ccccc1)C(=O)C(=O)CC1CCCCC1 [Compound 4, (4S)-4-(N-benzyloxycarbonyl-L-leucyl-L-prolyl)amino-1-cyclohexyl-2,3-heptanedione]
9.94 | CCC[C@H](NC(=O)[C@@H]1CCCN1C(=O)[C@H](CC(C)C)NC(=O)OCc1ccccc1)C(=O)C(=O)CCC1CCCCC1 [Compound 5, (5S)-5-(N-benzyloxycarbonyl-L-leucyl-L-prolyl)amino-1-cyclohexyl-3,4-octanedione]
0.78 | CCC[C@H](NC(=O)[C@@H]1CCCN1C(=O)[C@H](CC(C)C)NC(=O)OCc1ccccc1)C(=O)C(=O)Cc1ccccc1 [Compound 6, (4S)-4-(N-benzyloxycarbonyl-L-leucyl-L-prolyl)amino-1-phenyl-2,3-heptanedione]
